Data published in US12281225B2, “Process for preparing stable polymers containing vinylimidazole” (BASF SE, priority 2018, dated 2025).

Legend:
[1] = Analysis of active substance: preservative concentration before and after storage in VI-containing polymer solution; assay type: physicochemical; settings: for active-substance concentration, 0 d, RT: before storage; for active-substance concentration, 14 d, 40° C.: storage 14 d at 40° C.; for active-substance concentration, 28 d, 40° C.: storage 28 d at 40° C.; for active-substance concentration, 60 d 40° C.: storage 60 d at 40° C.
Outline: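 Preservatives (MIT, BIT, CMIT, OIT, DCOIT, iodopropynyl butyl carbamate) in aqueous vinylpyrrolidone–vinylimidazole copolymer solution quantified after dilution by isocratic RP18 chromatography with UV detection, using an acid-methanol eluent.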

[2] = Iodine color number according to DIN 6162:2014-09; assay type: physicochemical
[3] = test system: Bacteria: Escherichia coli, Staphylococcus aureus, Pseudomonas aeruginosa, Pseudomonas putida, Burkholderia cepacia, Alcaligenes faecalis; assay: Preservation test with periodic inoculation, bacteria assessment; assay type: cell-based; settings: sample stored 60 d at 40° C.
Outline: (§1)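 Polymer samples (25 g) containing preservative were inoculated weekly, four times, with 10^9/ml bacterial or yeast mixtures (0.5 ml). Weekly streaks on agar were scored semiquantitatively (−− to ++) after 3 days at 25 °C, on fresh samples and on samples stored 60 days at 40 °C.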

[4] = test system: Yeast: Candida albicans, Candida valida, Rhodotorula rura, Saccharomyces cerevisiae; assay: Preservation test with periodic inoculation, yeast assessment; assay type: cell-based; settings: for Start sample measurement, yeast assess., 4th inoculation: freshly formulated; for 60 d 40° C., yeast assess., 4th inoculation: sample stored 60 d at 40° C.
Outline: as §1

[5] = Polymer P5 (HP56) with stabilizer

## Cn1sc(Cl)cc1=O [CMIT, 5-chloro-N-methylisothiazolin-3-one]
[1]; in Polymer P1
  active-substance concentration, 0 d, RT: 150 ppm
  active-substance concentration, 14 d, 40° C.: 94 ppm
  active-substance concentration, 28 d, 40° C.: 81 ppm
  active-substance concentration, 60 d 40° C.: 59 ppm
[1]; in Polymer P2
  active-substance concentration, 0 d, RT: 150 ppm
  active-substance concentration, 14 d, 40° C.: 108 ppm
  active-substance concentration, 28 d, 40° C.: 89 ppm
  active-substance concentration, 60 d 40° C.: 66 ppm
[1]; in Polymer P3
  active-substance concentration, 0 d, RT: 150 ppm
  active-substance concentration, 14 d, 40° C.: 117 ppm
  active-substance concentration, 28 d, 40° C.: 93 ppm
  active-substance concentration, 60 d 40° C.: 77 ppm
[1]; in Polymer P4
  active-substance concentration, 0 d, RT: 150 ppm
  active-substance concentration, 14 d, 40° C.: 111 ppm
  active-substance concentration, 28 d, 40° C.: 89 ppm
  active-substance concentration, 60 d 40° C.: 73 ppm
[1]; in Polymer P5 (HP56)
  active-substance concentration, 0 d, RT: 150 ppm
  active-substance concentration, 14 d, 40° C.: 94 ppm
  active-substance concentration, 28 d, 40° C.: 81 ppm
  active-substance concentration, 60 d 40° C.: 59 ppm
[1]; in Polymer P6
  active-substance concentration, 0 d, RT: 150 ppm
  active-substance concentration, 14 d, 40° C.: 91 ppm
  active-substance concentration, 28 d, 40° C.: 76 ppm
  active-substance concentration, 60 d 40° C.: 55 ppm
[1]; in Polymer P7
  active-substance concentration, 0 d, RT: 150 ppm
  active-substance concentration, 14 d, 40° C.: 96 ppm
  active-substance concentration, 28 d, 40° C.: 80 ppm
  active-substance concentration, 60 d 40° C.: 64 ppm
[1]; in Polymer P8
  active-substance concentration, 0 d, RT: 150 ppm
  active-substance concentration, 14 d, 40° C.: 94 ppm
  active-substance concentration, 28 d, 40° C.: 81 ppm
  active-substance concentration, 60 d 40° C.: 59 ppm
[1]; in Polymer P9
  active-substance concentration, 0 d, RT: 150 ppm
  active-substance concentration, 14 d, 40° C.: 82 ppm
  active-substance concentration, 28 d, 40° C.: 70 ppm
  active-substance concentration, 60 d 40° C.: 51 ppm
[2]; Polymer P1 with stabilizer
  Iodine color number, 60 d 40° C.: 6.2
  Iodine color number, start: 2.5
[2]; Polymer P2 with stabilizer
  Iodine color number, 60 d 40° C.: 8.6
  Iodine color number, start: 3.1
[2]; Polymer P3 with stabilizer
  Iodine color number, 60 d 40° C.: 8.5
  Iodine color number, start: 3.2
[2]; Polymer P4 with stabilizer
  Iodine color number, 60 d 40° C.: 8.9
  Iodine color number, start: 3.2
[2]; [5]
  Iodine color number, 60 d 40° C.: 9.0
  Iodine color number, start: 3.5
[2]; Polymer P6 with stabilizer
  Iodine color number, 60 d 40° C.: 9.1
  Iodine color number, start: 3.5
[2]; Polymer P7 with stabilizer
  Iodine color number, 60 d 40° C.: 9.1
  Iodine color number, start: 3.5
[2]; Polymer P8 with stabilizer
  Iodine color number, 60 d 40° C.: 9.3
  Iodine color number, start: 3.3
[2]; Polymer P9 with stabilizer
  Iodine color number, 60 d 40° C.: 13.9
  Iodine color number, start: 3.9
[3]; Polymer P1
  60 d 40° C., bact. assess., 4th inoculation: 0 (moderate growth, max. 400 colonies)
[3]; Polymer P2
  60 d 40° C., bact. assess., 4th inoculation: +
[3]; Polymer P3
  60 d 40° C., bact. assess., 4th inoculation: +
[3]; Polymer P4
  60 d 40° C., bact. assess., 4th inoculation: +
[3]; Polymer P5 (HP56)
  60 d 40° C., bact. assess., 4th inoculation: +
[3]; Polymer P6
  60 d 40° C., bact. assess., 4th inoculation: +
[3]; Polymer P7
  60 d 40° C., bact. assess., 4th inoculation: +
[3]; Polymer P8
  60 d 40° C., bact. assess., 4th inoculation: 0 (moderate growth, max. 400 colonies)
[3]; Polymer P9
  60 d 40° C., bact. assess., 4th inoculation: ++
[4]; Polymer P1
  Start sample measurement, yeast assess., 4th inoculation: − (slight growth, max. 100 colonies)
  60 d 40° C., yeast assess., 4th inoculation: +
[4]; Polymer P2
  Start sample measurement, yeast assess., 4th inoculation: − (slight growth, max. 100 colonies)
  60 d 40° C., yeast assess., 4th inoculation: +
[4]; Polymer P3
  Start sample measurement, yeast assess., 4th inoculation: − (slight growth, max. 100 colonies)
  60 d 40° C., yeast assess., 4th inoculation: ++
[4]; Polymer P4
  Start sample measurement, yeast assess., 4th inoculation: − (slight growth, max. 100 colonies)
  60 d 40° C., yeast assess., 4th inoculation: +
[4]; Polymer P5 (HP56)
  Start sample measurement, yeast assess., 4th inoculation: − (slight growth, max. 100 colonies)
  60 d 40° C., yeast assess., 4th inoculation: ++
[4]; Polymer P6
  Start sample measurement, yeast assess., 4th inoculation: − (slight growth, max. 100 colonies)
  60 d 40° C., yeast assess., 4th inoculation: +
[4]; Polymer P7
  Start sample measurement, yeast assess., 4th inoculation: − (slight growth, max. 100 colonies)
  60 d 40° C., yeast assess., 4th inoculation: ++
[4]; Polymer P8
  Start sample measurement, yeast assess., 4th inoculation: − (slight growth, max. 100 colonies)
  60 d 40° C., yeast assess., 4th inoculation: 0 (moderate growth, max. 400 colonies)
[4]; Polymer P9
  Start sample measurement, yeast assess., 4th inoculation: − (slight growth, max. 100 colonies)
  60 d 40° C., yeast assess., 4th inoculation: ++
